Results as given in US11939302B2, “Compounds for the treatment of Alzheimer's disease” (The Governors of the University of Alberta, priority 2020, dated 2024).
No end group written: not given here.

Columns and labels:
[1] = system: Aβ toxicity; conditions: Jhamandas et al., 2004; 2011; 2012; cited from earlier work
[2] = system: long-term potentiation; conditions: hippocampus of TgCRND8 mice; Kimura et al., 2012; 2016; cited from earlier work
[3] = target: T1, amylin receptor subtype 3 (AMY3) (Homo sapiens, UniProt O60896+P30988); test: cAMP ELISA in AMY3-HEK cells, reduction of human amylin induced cAMP; assay type: cell-based; conditions: FIG. 2; for Mode of action indicated by cAMP assays in amylin receptor subtype 3 expressing cells: AMY3 expressing cells; for Human amylin generation of cAMP in the presence of compound: human amylin 0.1 μM, compound 10 μM, AMY3-HEK cells
T1 construct: expressed in transfected cells
T1 sequence (P30988 25-474): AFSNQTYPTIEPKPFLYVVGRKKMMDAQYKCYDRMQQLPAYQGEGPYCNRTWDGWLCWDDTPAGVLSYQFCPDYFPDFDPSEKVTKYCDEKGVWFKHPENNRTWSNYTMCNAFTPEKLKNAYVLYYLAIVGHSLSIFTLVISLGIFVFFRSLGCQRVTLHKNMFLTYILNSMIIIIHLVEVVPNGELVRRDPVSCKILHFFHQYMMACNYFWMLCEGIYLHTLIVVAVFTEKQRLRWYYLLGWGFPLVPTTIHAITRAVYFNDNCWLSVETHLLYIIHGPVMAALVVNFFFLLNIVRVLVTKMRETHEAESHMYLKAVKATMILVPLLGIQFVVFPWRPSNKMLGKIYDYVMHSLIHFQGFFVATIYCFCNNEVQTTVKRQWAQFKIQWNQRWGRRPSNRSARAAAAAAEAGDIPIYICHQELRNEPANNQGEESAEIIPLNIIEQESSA
T1 sequence (O60896 24-148 partner): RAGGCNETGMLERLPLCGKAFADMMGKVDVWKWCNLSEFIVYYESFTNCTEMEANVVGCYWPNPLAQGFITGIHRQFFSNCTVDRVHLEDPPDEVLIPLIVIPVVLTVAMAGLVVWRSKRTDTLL
Description: Compounds described herein were screened using a cAMP (cyclic adenosine monophosphate) assay in amylin receptor subtype 3 expressing cells (See FIG. 1).
Cell Cultures. Amylin receptor subtypes (AMY3-HEK cells) stably expressed in human embryonic kidney (HEK293) cell-line were generated and characterized as described in a previous published article (Fu et al., J. Biol. Chem. 2012). The AMY3-HEK cells were grown in a 5% CO2 humidified incubator at 37° C. with DMEM, 10% FBS, and 100 μg/mL Zeocin medium.
ELISA (enzyme-linked immunosorbent assay). Cellular cAMP levels were measured using a parameter cyclic AMP assay kit (R&D Systems) according to the manufacturer's instructions. Briefly, AMY3-HEK cells were plated on 24-well plates overnight. These cells were then incubated with or without the assay compounds and hAmylin for 5 min. The cells were lysed with lysis buffer provided in the assay kit. Standard curves were plotted using the cAMP standards provided in the ELISA kits. All samples were analyzed in duplicate. The plate was measured at 450 nm. Data was plotted, and non-linear regression was fitted with four parameters using Prism software (GraphPad Software, La Jolla, CA).
Compounds were assayed based on potency of reduction at 10 μM of 0.1 μM human Amylin (hAmylin) induced cAMP increases.

[4] = target: T1, amylin receptor subtype 3 (AMY3); test: Kinetic intracellular Ca2+ changes (Fluo-8L-AM) in AMY3-HEK293 cells; assay type: cell-based; conditions: human amylin 0.5 μM; compound 0.01-10 μM range; FIG. 3
Description: Kinetic Intracellular Ca^2+ Changes. Dynamic changes of the free cytosolic Ca2+ concentration were monitored with microplate reader. For monitor amylin induced intracellular Ca^2+, AMY3-HEK293 cells were plated on 96 well cell culture plates and incubated at 37° C. for 12-36 h with DMEM, 10% FBS, and Zeocin medium. For Ca^2+ changes, the AMY3-HEK293 cells were washed twice with assay solution which ion content similar to extracellular brain fluid thus containing the following: 130 mM NaCl, 4 mM KCl, 1 mM MgCl2, 2 mM CaCl2), 10 mM HEPES, and 10 mM glucose (pH 7.35). Then incubated with the membrane-permeant fluorescent Ca^2+-sensitive dye Fluo-8L-AM (AAT Bioquest, Inc., Sunnyvale, CA), with 5 μM of the agent for 40 min at room temperature (20-23° C.) in assay solution. The test compounds were added in various concentrations of 0.01, 0.1, 1, and 10 μM for 10 min and kinetic measured the fluorescent intensity with Varioskan-LUX microplate reader (Thermo Fisher Scientific, Waltham, MA). Human amylin were dissolved in sterile bidistilled water at 1 mM stock solution and incubated at room temperature for 10 min before dilution with assay solution for use at a final concentration of 0.5 μM. Fluorescent intensity was measured at excitation/emission wavelength of 488/514 nm, excitation bandwidth 12 nm, kinetic interval 1 min, and measure time at 100 ms. […]

[5] = system: N2a neuronal cells; test: MTT cell death assay, amyloid beta toxicity; assay type: cell-based, mouse; conditions: N2a cell line; Aβ1-42 10 μM, soluble oligomeric; 24-48 h; FIG. 4
Description: MTT Cell Death Assay. The N2a (mouse) and SK-N-SH (human) neuronal cells were seeded to 5000 cells/well in a 96-well plate in DMEM medium, 10% FBS and incubated overnight. Cells in culture medium were incubated either with or without the assay compounds and Aβ1-42, 10 μM for 24-48 h. At the end of treatment, 20 μL of 5 mg/mL 3-(4,5-dimethylthiazol-2-yl)-2,5-diphenyltetrazolium bromide (MTT, Sigma) was added to each well and incubated at 37° C. for 3 h. Medium was removed, 100 μL of MTT solvent (isopropanol with 4 mM HCl) was added to each well, and the plates were incubated for 30 min at room temperature on a rotating shaker. Plates were analyzed on a microplate reader at a 562 nm wavelength.

[6] = system: hippocampal long term potentiation (LTP); test: Hippocampal long term potentiation (LTP) electrophysiology in brain slices; design: species or system mice; conditions: for LTP levels in hippocampal slices from transgenic AD mice (TgCRND8), chronically depressed LTP: compared with age matched wild type control (WT_Cont); for Effect on LTP from wild type control (WT_Cont) mice: WT_Cont slices; for Amyloid beta (Aβ)-induced depression of LTP / Human amylin-induced depression of LTP: compound 1 μM, brain hippocampal slices
Description: Hippocampal long term potentiation (LTP) electrophysiology experiments: an in vitro cellular surrogate for memory. Brains were quickly removed from mice following decapitation, placed in a cold artificial cerebral spinal fluid (aCSF) on a vibratome chamber and transverse sections cut through the hippocampus. The aCSF contained (in mM) 124 NaCl, 3 KCl, 2.4 CaCl2), 2 MgCl2, 1.25 NaH2PO4, 26 NaHCO3 and 10 D-glucose, and was equilibrated with 95% 02 and 5% CO2. Hippocampal slices ([…]) were maintained in aCSF-filled holding chamber at room temperature for at least 1 hour and individually transferred to the submerged glass bottom recording chamber, which was constantly perfused with aCSF (2 mL/min) at 30° C. Field excitatory postsynaptic potential (fEPSP) was recorded with a metallic (Pt/Ir) electrode (FHC, Bowdoin, ME) from the stratum radiatum layer of Cornu ammonis 1 region of the hippocampus (CA1) area, and the Schaffer collateral afferents were stimulated with 100-μs test pulses via a bipolar cluster electrode (FHC) (Kimura et al., 2012, Kimura et al. 2016). To evaluate basal synaptic transmission, we applied different stimulation strengths (75 μA to 300 μA in steps of 25 μA) and plotted the amplitudes of presynaptic fiber volleys versus the corresponding fEPSP slopes to compare the slope of input/output (I/O) curves of fEPSP. For long-term potentiation (LTP) experiments, the stimulus strength was set to elicit 40-50% of the maximum fEPSP amplitude and test pulses were delivered to Schaffer collaterals once every 30 seconds. LTP was induced by 3-theta-burst stimulation (3-TBS) protocol (each burst consisted of 4 pulses at 100 Hz with a 200-ms inter-burst interval). Before 3-TBS or drug application, the responses were monitored for at least 10 minutes to ensure a stable baseline of fEPSP. […] Results were from various treatment groups were plotted as histograms with means±standard error (SE). Statistical analysis was performed using one-way ANOVA followed by post-hoc Tukey's honestly significant difference (HSD) test (for multiple comparisons) or Student's t test (for pair-wise comparisons). All drugs and chemicals were applied directly to the slice via bath perfusion, which allowed for a complete exchange of the perfusate in less than a minute and a half.

Compound | Neuroprotection against Aβ toxicity [1] | Aβ- or human amylin-induced depression of long-term potentiation [2] | Mode of action indicated by cAMP assays in amylin receptor subtype 3 expressing cells [3] | Human amylin generation of cAMP in the presence of compound [3] | Elevations in intracellular calcium evoked by human amylin [4] | Cytoprotection against amyloid beta (Abeta) toxicity, cell viability by MTT [5] | LTP levels in hippocampal slices from transgenic AD mice (TgCRND8), chronically depressed LTP [6] | Effect on LTP from wild type control (WT_Cont) mice [6] | Amyloid beta (Aβ)-induced depression of LTP [6] | Human amylin-induced depression of LTP [6]
AC253: peptide antagonist of the amylin receptor, 24 amino acids, SEQ ID NO: 1 (Ac-LGRLSQELHRLQTYPRTNTGSNTY) | neuroprotective | reverse impairment |  |  |  |  |  |  |  | 
O=C1CN(C(=O)CCO)c2ccccc2N1 [Compound 10, 4-(3-hydroxypropanoyl)-3,4-dihydroquinoxalin-2(1H)-one] |  |  | amylin receptor antagonists | attenuated | attenuated | cytoprotective | increased LTP levels to levels observed in WT_Cont mice | no effects | blocked | blocked
O=c1[nH]c2ccccc2n(CCCO)c1=O [Compound 1, 1-(3-hydroxypropyl)-1,4-dihydroquinoxaline-2,3-dione] |  |  | amylin receptor antagonists | attenuated | attenuated | cytoprotective | increased LTP levels | no effects | blocked | blocked
